Values joined by “and” are separate entries in the source; they are usually repeats but may differ in a detail not shown here. Identical values can stand only once.

Data set [1] is described as follows: Pharmacokinetics after intravenous (IV) administration, plasma. Details: AUClast/D: unit not given here. Particulars: 3 mg/kg IV; for Concentration (ng/mL): plasma. The class given is in vivo, CD1 mice. As for the experimental part:
(§1) Protocol for pharmacokinetic and tissue distribution studies. The pharmacokinetics of the compounds was studied in CD1 mice after intravenous (IV) and oral gavage (PO) administration. Mouse PK studies was conducted at 3 mg/kg (IV) and 8 mg/kg (PO). Plasma samples obtained from dosed animals, at ten time points, including 5, 15 and 30 minutes and 1, 1.5, 2, 4, 6, 8 and 24 hr post-dose for processing to plasma, were prepared for analysis by means of a single step protein precipitation technique, by adding 200 μL of acetonitrile containing an IS mixture (labetalol, imipramine and diclofenac) to 50 μL aliquots of individual subject samples. Samples were mixed by vortex for homogeneity and then subjected to centrifugation at 4000 rpm for 10 min. The supernatant (200 μL) was collected and injected into the LC-MS/MS for analysis. Pharmacokinetic parameters will be calculated using established non-compartmental methods. The liver distribution of the compounds was studied in the PO group and liver tissues were collected at each time point after PO administration. Accurately weighed whole liver tissues were collected in a 50 mL tube, and 3 volumes per weight of water will be added. Tissue samples were homogenized and 50 μL of the homogenates will be processed along with plasma samples as described above.

A short description of data set [2]: Pharmacokinetics after oral gavage (PO) administration, plasma. The class given is in vivo, CD1 mice. More on the design: AUClast/D: unit not given here. To be noted: 8 mg/kg oral; for Concentration (ng/mL), plasma: individual animals. As for the experimental part: as §1
The target of data set [3] is T1, OATP1B1 (Homo sapiens, UniProt Q9Y6L6).
T1 construct: expressed in transfected cells; host or cells: HEK293
T1 sequence (Q9Y6L6 1-691): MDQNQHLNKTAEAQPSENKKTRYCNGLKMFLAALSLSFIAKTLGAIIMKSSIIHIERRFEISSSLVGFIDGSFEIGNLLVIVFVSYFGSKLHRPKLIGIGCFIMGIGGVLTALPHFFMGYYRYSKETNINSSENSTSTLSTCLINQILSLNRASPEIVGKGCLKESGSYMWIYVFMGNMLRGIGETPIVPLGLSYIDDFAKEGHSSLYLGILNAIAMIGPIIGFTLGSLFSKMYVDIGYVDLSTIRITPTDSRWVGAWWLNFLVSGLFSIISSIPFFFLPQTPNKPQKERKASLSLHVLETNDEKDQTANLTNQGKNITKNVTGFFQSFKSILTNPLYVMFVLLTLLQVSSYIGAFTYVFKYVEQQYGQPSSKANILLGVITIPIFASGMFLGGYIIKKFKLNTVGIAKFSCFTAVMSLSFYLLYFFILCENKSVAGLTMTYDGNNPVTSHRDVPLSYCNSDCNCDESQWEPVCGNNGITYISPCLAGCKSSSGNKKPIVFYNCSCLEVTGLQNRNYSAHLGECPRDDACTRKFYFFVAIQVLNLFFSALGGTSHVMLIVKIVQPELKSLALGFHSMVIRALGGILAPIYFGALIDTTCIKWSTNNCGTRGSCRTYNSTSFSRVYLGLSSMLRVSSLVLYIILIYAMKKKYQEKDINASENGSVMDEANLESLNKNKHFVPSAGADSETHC
As to the kind of experiment: OATP1B1 transporter substrate uptake in OATP1B1-HEK293 cells. The class given is in vitro ADME. The procedure: Protocol for identification of compounds that are substrates of transporters OATPIBI and OATPIB3. Transfected HEK293 and vector control HEK293 cells were cultured in 24-well poly-D-lysine or collagen-coated tissue culture plates ([…]) for 2 and 10 minutes respectively in transport buffer (HBSSg, pH 7.4, pre-warmed to 37° C.). At a defined time point, the uptake experiments were stopped by removing dosing solution followed by two washes of ice-cold HBSSg buffer. The cells were lysed for 2 minutes with 75% ACN containing an appropriate internal standard (when available). Lysis buffer were chilled to −20° C., and the plate was kept on ice during lysis. The cell lysate was transferred into a 96-well plate for sample analysis with LC-MS/MS analysis to determine concentration of test compound in cell lysate. The uptake of test compounds was normalized by total cell protein using the BCA Protein Assay Kit following the manufacturer's protocol. The inhibitor Rifamycin SV was used to block OATP1B1 and OATP1B3 transporter activity in order to determine uptake ratios.

Turning to `COc1cc2c(cc1OCCCCCCC(=O)O)C[C@@H](C(C)C)n1cc(C(=O)O)c(=O)cc1-2` [Example 6, (S)-9-((6-carboxyhexyl)oxy)-6-isopropyl-10-methoxy-2-oxo-6,7-dihydro-2H-pyrido[2,1-a]isoquinoline-3-carboxylic acid], the “AUC—% Extrap —obs” value in data set [1] (individual mice) was 1.59% and 1.03% and 0.662%; in data set [1] (mean), 1.09%. Moreover, the Cl_obs in data set [1] (individual mice) was 187 mL/min/kg and 166 mL/min/kg and 242 mL/min/kg; in data set [1] (mean), 198 mL/min/kg. The AUClast/D in data set [1] (mean) was 85.1; in data set [2] (mean), 4.33. In data set [1] (mean), the C0 was 2568 ng/mL. Further, the “Concentration (ng/mL)” value in data set [1] (4 h, individual mice) was “BLOQ”; in data set [1] (8 h, individual mice) it was “BLOQ”; in data set [1] (24 h, individual mice) it was “BLOQ”. This molecule also registered a F in data set [2] (mean) of 5.09%. For the same molecule, the “Concentration (ng/mL), plasma” value in data set [2] (8 h) and in data set [2] (24 h) was “BLOQ” each time. Further, the “Uptake Ratio (−/+Inhibitor)” value in data set [3] (OATP1B1-HEK293 cells, test concentration 1 μM, inhibitor Rifamycin SV) is given as 11.17. The “Uptake Ratio (Transporter(−Inhibitor)/Mock(−Inhibitor))” value in data set [3] (OATP1B1-HEK293 vs mock HEK293, test concentration 1 μM) is recorded as 18.99.

For the origin of these results see patent US20260274836A1, “NOVEL HEPATOSELECTIVE POLYADENYLATING POLYMERASES INHIBITORS AND THEIR METHOD OF USE” (Baruch S. Blumberg Institute, priority 2022, published 2026).
